In US5840684A, “Glycopeptide antibiotic derivatives” (Eli Lilly and Company, priority 1995, dated 1998):
Values after ≈ are worked out from the molar mass of the structure shown.

Legend:
[1] = test system: vancomycin-susceptible enterococci; test: broth micro-dilution, mean geometric MIC; assay type: cell-based, Enterococcus faecium and Enterococcus faecalis; conditions: enterococci, 24-hour incubation
Pediococcus acidilacti = test: agar dilution MIC, lactic acid bacteria; assay type: cell-based; conditions: Pediococcus acidilacti (mean of 10), brain-heart infusion agar
Entercoccus faecium 180 = test: broth micro-dilution MIC; assay type: cell-based; conditions: Entercoccus faecium 180
Experimental: (§1) The formula I compounds have in vitro and in vivo activity against Gram-positive pathogenic bacteria. The MIC's were determined using a standard broth micro-dilution assay.

[2] = test system: Staphylococcus haemolyticus 415; test: broth micro-dilution MIC; assay type: cell-based
Experimental: as §1

[3] = test system: Streptococcus pneumoniae P1; test: broth micro-dilution MIC; assay type: cell-based
Experimental: as §1

[4] = test system: Enterococcus gallinarum 245; test: broth micro-dilution MIC; assay type: cell-based; conditions: Enterococcus gallinarum 245
Experimental: as §1

Entercoccus faecium 2041 = test: broth micro-dilution MIC; assay type: cell-based; conditions: Entercoccus faecium 2041
Experimental: as §1

[5] = test system: Staphylococcus haemolyticus 105; test: broth micro-dilution MIC; assay type: cell-based
Experimental: as §1

[6] = test system: Staphylococcus epidermidis 270; test: broth micro-dilution MIC; assay type: cell-based
Experimental: as §1

Leuconostoc citreum = test: agar dilution MIC, lactic acid bacteria; assay type: cell-based; conditions: brain-heart infusion agar
[7] = test system: vancomycin-resistant enterococci; test: broth micro-dilution, mean geometric MIC; assay type: cell-based, Enterococcus faecium and Enterococcus faecalis; conditions: enterococci, 24-hour incubation
[8] = test system: Staphylococcus aureus S13E; assay type: cell-based
Experimental: (§2) The MIC's were determined using a standard broth micro-dilution assay.

[9] = test system: Staphylococcus aureus SA1199A; test: broth micro-dilution MIC; assay type: cell-based
Experimental: as §2

[10] = test system: Staphylococcus aureus 489; test: broth micro-dilution MIC; assay type: cell-based
Experimental: as §2

[11] = test system: Staphylococcus aureus X400; test: broth micro-dilution MIC; assay type: cell-based
Experimental: as §2

[12] = test system: Staphylococcus aureus 447; test: broth micro-dilution MIC; assay type: cell-based
Experimental: as §2

Entercoccus faecium 276 = test: broth micro-dilution MIC; assay type: cell-based
Experimental: as §2

[13] = test system: Staphylococcus aureus SA1199; test: broth micro-dilution MIC; assay type: cell-based
Experimental: as §2

[14] = test system: Staphylococcus aureus X778; test: broth micro-dilution MIC; assay type: cell-based
Experimental: as §2

[15] = test system: Streptococcus pyogenes C203; test: broth micro-dilution MIC; assay type: cell-based
Experimental: as §2

[16] = test system: Leuconostoc pseudomesenteroides; test: agar dilution MIC, lactic acid bacteria; assay type: cell-based; conditions: brain-heart infusion agar
Streptococcus pyogenes = test: mouse protection, experimentally-induced infection; assay type: in vivo; conditions: mice infected with Streptococcus pyogenes, two doses
Lactobacillus confusus = test: agar dilution MIC, lactic acid bacteria; assay type: cell-based; conditions: Lactobacillus confusus, brain-heart infusion agar
[17] = test system: Leuconostoc mesenteroides; test: agar dilution MIC, lactic acid bacteria; assay type: cell-based; conditions: Leuconostoc mesenteroides (mean of 4), brain-heart infusion agar
Pediococcus pentosaceus = test: agar dilution MIC, lactic acid bacteria; assay type: cell-based; conditions: Pediococcus pentosaceus (mean of 2), brain-heart infusion agar
[18] = test system: Staphylococcus aureus SA1199B; assay type: cell-based
Experimental: as §2

[19] = test system: Entercoccus faecium 180-1; test: broth micro-dilution MIC; assay type: cell-based
Experimental: as §2

[20] = test system: Staphylococcus aureus 446; test: broth micro-dilution MIC; assay type: cell-based
Experimental: as §2

Leuconostoc lactis = test: agar dilution MIC, lactic acid bacteria; assay type: cell-based; conditions: Leuconostoc lactis (mean of 2), brain-heart infusion agar
Streptococcus pneumoniae = test: mouse protection, experimentally-induced infection; assay type: in vivo; conditions: mice infected with Streptococcus pneumoniae, two doses
Stapylococcus aureus = test: mouse protection, experimentally-induced infection; assay type: in vivo; conditions: mice infected with Stapylococcus aureus, two doses
[21] = test system: Staphylococcus aureus 491; test: broth micro-dilution MIC; assay type: cell-based
Experimental: as §2

Compound	mean geometric MIC, Vancomycin Sensitive Strains [1] [mg/L]	MIC (Pediococcus acidilacti) [mg/L]	MIC (Entercoccus faecium 180) [mg/L]	MIC [2] [mg/L]	MIC [3] [mg/L]	MIC [4] [mg/L]	MIC (Entercoccus faecium 2041) [mg/L]	MIC [5] [mg/L]	MIC (Leuconostoc citreum) [mg/L]	mean geometric MIC, Vancomycin Resistant Strains [7] [mg/L]	MIC [8] [mg/L]	MIC [9] [mg/L]	MIC [10] [mg/L]	MIC [11] [mg/L]	MIC [12] [mg/L]	MIC (Entercoccus faecium 276) [mg/L]	MIC [13] [mg/L]	MIC [14] [mg/L]	MIC [15] [mg/L]	MIC [16] [mg/L]	also measured
CNC(CC(C)C)C(=O)NC1C(=O)NC(CC(N)=O)C(=O)NC2C(=O)NC3C(=O)NC(C(=O)NC(C(=O)O)c4cc(O)cc(O)c4-c4cc3ccc4O)C(OC3CC(C)(N)C(O)C(C)O3)c3ccc(c(Cl)c3)Oc3cc2cc(c3OC2OC(CO)C(O)C(O)C2OC2CC(C)(NCc3cccc4c3OCO4)C(O)C(C)O2)Oc2ccc(cc2Cl)C1O (centres unmarked) [Compound 58]	0.76	55 (≈ 31.9 µM)	8 (≈ 4.63 µM)	8 (≈ 4.63 µM)	≤ 0.06	0.4 (≈ 0.232 µM)	0.5 (≈ 0.29 µM)	4 (≈ 2.32 µM)	128 (≈ 74.1 µM)	5.7	≤ 0.06	≤ 0.06	≤ 0.06	≤ 0.06	1 (≈ 0.579 µM)	0.5 (≈ 0.29 µM)	≤ 0.06	≤ 0.06	≤ 0.06	128 (≈ 74.1 µM)	MIC [6]: 4 mg/L (≈ 2.32 µM)
CNC(CC(C)C)C(=O)NC1C(=O)NC(CC(N)=O)C(=O)NC2C(=O)NC3C(=O)NC(C(=O)NC(C(=O)O)c4cc(O)cc(O)c4-c4cc3ccc4O)C(OC3CC(C)(N)C(O)C(C)O3)c3ccc(c(Cl)c3)Oc3cc2cc(c3OC2OC(CO)C(O)C(O)C2OC2CC(C)(NCc3ccc(Sc4ccccc4)cc3)C(O)C(C)O2)Oc2ccc(cc2Cl)C1O (centres unmarked) [Compound 108]	0.04	12 (≈ 6.7 µM)	–	1 (≈ 0.558 µM)	≤ 0.06	≤ 0.06	≤ 0.06	2 (≈ 1.12 µM)	–	0.84	1 (≈ 0.558 µM)	≤ 0.06	–	2 (≈ 1.12 µM)	0.5 (≈ 0.279 µM)	0.5 (≈ 0.279 µM)	2 (≈ 1.12 µM)	–	≤ 0.06	32 (≈ 17.9 µM)	ED50 (Streptococcus pyogenes): 0.046 mg/kg/2; MIC (Lactobacillus confusus): 16 mg/L (≈ 8.93 µM); MIC [17]: 10 mg/L (≈ 5.58 µM); MIC (Pediococcus pentosaceus): 23 mg/L (≈ 12.8 µM); MIC [18]: 2 mg/L (≈ 1.12 µM); MIC [19]: ≤ 0.06 mg/L; MIC [20]: 2 mg/L (≈ 1.12 µM); MIC (Leuconostoc lactis): 8.0 mg/L (≈ 4.47 µM); ED50 (Streptococcus pneumoniae): 0.041 mg/kg/2
CNC(CC(C)C)C(=O)NC1C(=O)NC(CC(N)=O)C(=O)NC2C(=O)NC3C(=O)NC(C(=O)NC(C(=O)O)c4cc(O)cc(O)c4-c4cc3ccc4O)C(OC3CC(C)(N)C(O)C(C)O3)c3ccc(c(Cl)c3)Oc3cc2cc(c3OC2OC(CO)C(O)C(O)C2OC2CC(C)(NCc3ccc4ccccc4c3)C(O)C(C)O2)Oc2ccc(cc2Cl)C1O (centres unmarked) [Compound 1]	0.0061	18 (≈ 10.4 µM)	0.5 (≈ 0.289 µM)	4 (≈ 2.31 µM)	≤ 0.06	4 (≈ 2.31 µM)	0.125 (≈ 0.0721 µM)	4 (≈ 2.31 µM)	> 128	0.25	0.125 (≈ 0.0721 µM)	≤ 0.06	≤ 0.06	≤ 0.06	≤ 0.06	≤ 0.06	≤ 0.06	0.125 (≈ 0.0721 µM)	≤ 0.06	> 128	ED50 (Streptococcus pyogenes): 0.052 mg/kg/2; ED50 (Stapylococcus aureus): 0.086 mg/kg/2; MIC (Pediococcus pentosaceus): 23 mg/L (≈ 13.3 µM); MIC [21]: 2 mg/L (≈ 1.15 µM); MIC [19]: ≤ 0.06 mg/L; MIC [20]: ≤ 0.06 mg/L; MIC (Leuconostoc lactis): 23 mg/L (≈ 13.3 µM); ED50 (Streptococcus pneumoniae): 0.025 mg/kg/2
